Measurements published in patent US11033537B2, “LPT-723 and immune checkpoint inhibitor combinations and methods of treatment” (BIOMED VALLEY DISCOVERIES, INC., priority 2015, dated 2021).

System: HCT-116 human colon xenografts
Assay: HCT-116 human colorectal cancer xenograft model
Assay type: in vivo
Settings: LPT-723 30 mpk p.o. twice a day, BALB/c nude mice
Protocol: BALB/c nude mice bearing HCT-116 human colon xenografts were treated with control (vehicle) and LPT-723. Treatment was initiated when tumor volume reached approximately 80-120 mm^3. LPT-723 was dosed p.o. twice a day at 30 mpk.

Cc1cc(-c2cncc(C(O)C(F)(F)F)c2)nc2c1C(=O)N(c1cnn(CC(F)F)c1)C2(C)C (stereo not shown) [LPT-723]
tumor growth inhibition: 45%
